Measured values reported in PMC9079729, “Conservation of the conformational dynamics and ligand binding within M49 enzyme family” (RSC Advances, 2018).
Residues, ends and D or L forms follow the SMILES beside them.

Key:
[1] = target: T1, hDPP III (Homo sapiens, UniProt Q9NY33); test: biochemical
T1 sequence (Q9NY33 1-737): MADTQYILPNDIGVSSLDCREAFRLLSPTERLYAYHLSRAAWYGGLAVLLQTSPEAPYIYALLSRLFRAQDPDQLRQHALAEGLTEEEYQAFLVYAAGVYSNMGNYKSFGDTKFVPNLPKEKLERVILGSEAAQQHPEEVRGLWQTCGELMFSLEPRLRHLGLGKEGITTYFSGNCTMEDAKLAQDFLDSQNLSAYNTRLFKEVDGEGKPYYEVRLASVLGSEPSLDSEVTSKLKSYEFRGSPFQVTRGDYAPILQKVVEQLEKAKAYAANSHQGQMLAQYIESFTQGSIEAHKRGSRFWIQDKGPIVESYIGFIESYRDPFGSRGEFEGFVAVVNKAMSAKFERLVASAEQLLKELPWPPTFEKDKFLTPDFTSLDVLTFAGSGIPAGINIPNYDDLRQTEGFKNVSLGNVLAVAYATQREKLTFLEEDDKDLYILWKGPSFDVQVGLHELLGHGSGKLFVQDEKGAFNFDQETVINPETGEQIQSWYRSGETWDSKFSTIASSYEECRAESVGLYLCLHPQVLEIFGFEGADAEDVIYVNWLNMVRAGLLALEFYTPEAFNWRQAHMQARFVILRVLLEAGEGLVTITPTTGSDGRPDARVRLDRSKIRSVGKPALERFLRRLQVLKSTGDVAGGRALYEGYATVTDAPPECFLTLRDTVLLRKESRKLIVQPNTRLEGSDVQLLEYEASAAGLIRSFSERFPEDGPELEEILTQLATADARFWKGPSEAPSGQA
Protocol: (§1) The Km values for hydrolysis of fluorogenic substrate Arg2-2NA were determined at pH 7.4 (20 mM Tris–HCl buffer) and at 25 °C, from the initial reaction rates as previously described.[26]
(§2) Enzyme inhibition studies with tynorphin were performed using the Arg2-2NA as a substrate, according to Baršun et al.[36] The inhibition constant, Ki, was calculated according to the equation:1 Ki = i/(v0/vi − 1)·Km/(Km + s)where v0 and vi are the initial hydrolysis rates of Arg2-2NA (given in concentration s) catalyzed by DPP III in the absence and presence of inhibitor concentration (i), and Km is the Michaelis constant.

[2] = target: T2, yDPP III (Saccharomyces cerevisiae, UniProt Q08225); test: Inhibition of DPP III hydrolysis of Arg2-2NA by tynorphin; format: biochemical, yeast (Saccharomyces cerevisiae); conditions: substrate Arg2-2NA, from initial hydrolysis rates, eq. 1
T2 construct: His6 (C); made in house; host or cells: E. coli
T2 sequence (Q08225 1-711): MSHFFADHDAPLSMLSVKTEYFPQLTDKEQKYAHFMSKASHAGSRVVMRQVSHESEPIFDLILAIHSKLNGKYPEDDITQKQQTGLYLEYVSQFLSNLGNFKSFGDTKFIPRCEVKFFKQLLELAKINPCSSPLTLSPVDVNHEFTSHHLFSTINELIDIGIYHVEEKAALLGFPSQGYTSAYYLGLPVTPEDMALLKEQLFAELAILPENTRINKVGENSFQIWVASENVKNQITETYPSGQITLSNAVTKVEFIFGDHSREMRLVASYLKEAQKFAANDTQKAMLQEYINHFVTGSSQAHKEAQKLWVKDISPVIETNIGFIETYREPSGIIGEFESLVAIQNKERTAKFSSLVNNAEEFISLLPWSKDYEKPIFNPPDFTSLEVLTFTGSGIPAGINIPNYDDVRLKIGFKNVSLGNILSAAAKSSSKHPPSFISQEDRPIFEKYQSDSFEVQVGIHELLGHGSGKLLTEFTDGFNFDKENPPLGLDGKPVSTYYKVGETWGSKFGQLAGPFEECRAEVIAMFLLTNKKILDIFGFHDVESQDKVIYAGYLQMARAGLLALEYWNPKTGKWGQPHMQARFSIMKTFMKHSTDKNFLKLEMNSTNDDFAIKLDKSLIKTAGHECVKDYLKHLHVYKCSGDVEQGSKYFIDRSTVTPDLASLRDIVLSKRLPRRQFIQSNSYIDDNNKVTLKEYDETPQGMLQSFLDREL
Protocol: as §1, §2

Question: Which Ki [1] does the source give for `CC(C)[C@H](N)C(=O)N[C@H](C(=O)N[C@@H](Cc1ccc(O)cc1)C(=O)N1CCC[C@H]1C(=O)N[C@@H](Cc1c[nH]c2ccccc12)C(=O)O)C(C)C` [tynorphin] (H-VVYPW-OH) here?
Answer: 30 nM

Question: And the Ki [2]?
Answer: 470 nM
